Molecules are shown by their SMILES.

The nature of data set [1]: octanol/water partition coefficient. Format: physicochemical. The following applies: Octanol/Wasser, read-out: log P (Verteilungskoeffizient Octanol/Wasser).
The test system of the next data set is maximaler Elektroschock. Nature of the data set: maximal electroshock (MES) test, mouse i.p. It is filed as in vivo. Conditions: Maus i.p.
For another data set, the system named is s.c. Pentetrazol. In words: s.c. pentetrazole (PTZ) test, mouse i.p. It is filed as in vivo. Conditions: Maus i.p.
A further data set relates to Neurotoxizität. Conditions: Ratte, p.o.
The next data set relates to s.c. Pentetrazol-Test. In words: s.c. pentetrazole test, rat.
A further data set deals with maximalen Elektroschock. Nature of the data set: maximal electroshock test, rat p.o. Conditions: po, read-out: ED50 (p.o.). A general note: In the maximal electroshock model the usual endpoint is tonic extension of the hind limbs.

With `O=C1N=C(N2CCOCC2)CN1c1ccc(Br)cc1` [Verbindung 8], the logP in data set [1] was 1.45. In addition, the “Wirkung in % der geschützten Tiere” value in the data set on maximaler Elektroschock (Dosis 300 mg/kg) was 30%; in the data set on s.c. Pentetrazol (Dosis 100 mg/kg), 100%.
For `CN(C)C1=NC(=O)N(c2ccc(Cl)cc2)C1` [Verbindung 6], in data set [1], the logP was determined as 1.61. The “Wirkung in % der geschützten Tiere” value in the data set with maximaler Elektroschock (Dosis 300 mg/kg) is recorded as 100%; in the data set on s.c. Pentetrazol (Dosis 100 mg/kg) it was 20%.
Broadly, the ED50 is the dose at which the effect has come halfway, by size or by number of responders. Take `O=C1N=C(N2CCOCC2)CN1c1ccc(Cl)cc1` [Verbindung 2, 1-(4-Chlorphenyl)-4-morpholinoimidazolin-2-on]: in data set [1], the logP came to 1.48. Besides, the entries for the “Wirkung in % der geschützten Tiere” value with maximaler Elektroschock (Dosis 300 mg/kg) and in the data set with s.c. Pentetrazol (Dosis 30 mg/kg) were 30% and 70%, respectively. Moreover, the NT50 in the data set with Neurotoxizität is over 400 mg/kg. The ED50 with s.c. Pentetrazol-Test came to 16 mg/kg; in the data set with maximalen Elektroschock, 21 mg/kg.
Turning to `O=C1N=C(N2CCCCC2)CN1c1ccc(Cl)cc1` [Verbindung 3], in data set [1], the logP is 2.29. For the same compound, the “Wirkung in % der geschützten Tiere” value in the data set on maximaler Elektroschock (Dosis 100 mg/kg) and in the data set with s.c. Pentetrazol (Dosis 100 mg/kg) was 100% in each case.
With `NC(=O)N1c2ccccc2C=Cc2ccccc21` [Carbamazepin, reference compound], the “Wirkung in % der geschützten Tiere” value came to 100% in the data set on maximaler Elektroschock (Dosis 100 mg/kg) and 0% in the data set on s.c. Pentetrazol (Dosis 100 mg/kg).
Regarding `CN1CCN(C2=NC(=O)N(c3ccc(Cl)cc3)C2)CC1` [Verbindung 5], the logP in data set [1] came to 2.17. Also, the “Wirkung in % der geschützten Tiere” value in the data set on maximaler Elektroschock (Dosis 300 mg/kg) and in the data set with s.c. Pentetrazol (Dosis 300 mg/kg) was 100% throughout.
Turning to `O=C1N=C(N2CCCCCC2)CN1c1ccc(Cl)cc1` [Verbindung 11], in data set [1], the logP turned out to be 2.56. The “Wirkung in % der geschützten Tiere” value is 100% in the data set on maximaler Elektroschock (Dosis 300 mg/kg) and 40% in the data set with s.c. Pentetrazol (Dosis 300 mg/kg).
The corresponding values for `O=C1N=C(N2CCOCC2)CN1c1cccc(Cl)c1` [Verbindung 10] are 1.28, 10% and 70%.
With `O=C1N=C(N2CCOCC2)CN1Cc1ccccc1` [Verbindung 4], the logP in data set [1] came to 0.48. For the same compound, the “Wirkung in % der geschützten Tiere” value in the data set on maximaler Elektroschock (Dosis 300 mg/kg) and in the data set on s.c. Pentetrazol (Dosis 300 mg/kg) was 30% throughout.
As to `COc1ccc(N2CC(N3CCCCC3)=NC2=O)cc1` [Verbindung 7], the logP in data set [1] turned out to be 1.53. Also, the “Wirkung in % der geschützten Tiere” value with maximaler Elektroschock (Dosis 300 mg/kg) and in the data set with s.c. Pentetrazol (Dosis 100 mg/kg) was 100% in each case.
For `O=C1N=C(N2CCOCC2)CN1c1ccc(F)cc1` [Verbindung 9], in data set [1], the logP was 0.97. For the same compound, the “Wirkung in % der geschützten Tiere” value worked out at 30% in the data set on maximaler Elektroschock (Dosis 100 mg/kg) and 100% in the data set with s.c. Pentetrazol (Dosis 100 mg/kg).
`CCCC(CCC)C(=O)O` [Valproat, reference compound]: the “Wirkung in % der geschützten Tiere” value came out at 0% in the data set on maximaler Elektroschock (Dosis 100 mg/kg) and 30% in the data set with s.c. Pentetrazol (Dosis 100 mg/kg).
For `O=C1N=C(N2CCOCC2)CN1c1ccccc1` [Verbindung 1], the logP in data set [1] worked out at 0.64. In addition, the “Wirkung in % der geschützten Tiere” value in the data set with maximaler Elektroschock (Dosis 100 mg/kg) and in the data set on s.c. Pentetrazol (Dosis 100 mg/kg) was 30% in each case.

For the origin of these results see EP0863880B1, “NOVEL 1-AR(ALK)YL-IMIDAZOLIN-2-ONES CONTAINING A DISUBSTITUTED AMINE RADICAL IN THE 4TH POSITION, HAVING AN ANTI-CONVULSIVE EFFECT, AND PROCESS FOR THEIR PRODUCTION” (elbion AG, priority 1995, dated 1997).
